Assay results from US11484529B2, “Desmethylanethole trithione derivatives for the treatment of diseases linked to mitochondrial reactive oxygen species (ROS) production” (OP2 Drugs, priority 2017, dated 2022).

Columns and labels:
[1] = tested on: pulmonary arterial smooth muscle cells (PASMC); assay: PASMC proliferation (BrdU incorporation); type: cell-based; settings: AOL 10, 20, 60 or 100 μM, 24 hours
Description: Detection of pulmonary arterial smooth muscle cells (PASMC) proliferation was assayed by using a colorimetric immunoassay kit (Roche Applied Science, Indianapolis, Ind., USA) based on the measurement of 5-bromo-2′-deoxy-uridine (BrdU) incorporation during DNA synthesis.
Isolated PASMC were seeded in culture medium supplemented with 10% fetal calf serum (FCS) at a density of 5·10^3 cells/well/100 μL in a 96-well culture plate. The culture plate was placed in a humidified incubator at 37° C. under 5% CO2 in air. After 48 hours, cells were subjected to 48 hours of growth arrest in serum-free culture medium supplemented with 1% insulin-transferrin-selenium. At the end of this period, PASMC were incubated for 24 hours in culture medium containing either: • 0.2% FCS (control condition); • 0.2% FCS+10, 20, 60 or 100 μM AOL; • 0.2% FCS+100 μM 5HT (serotonin); • 0.2% FCS+100 μM 5HT+10, 20, 60 or 100 μM AOL; • 10% FCS; • 10% FCS+10, 20, 60 or 100 μM AOL.
Each condition was tested in triplicate. 10 μL of BrdU (100 μM) was then added to the media and cells were incubated for an additional 2 hours at 37° C. […] Newly synthesized BrdU DNA was determined by measuring absorbance of the samples in an ELISA reader (Spectrostar/nano; BMG Labtech, Champigny-sur-Marne, France) at a wavelength of 380 nm with a reference wavelength of 490 nm.

[2] = tested on: isolated rat heart mitochondria; assay: Mitochondrial ATP synthesis (phosphorylation rate, pH electrode); type: biochemical
Description: Male Wistar rats (250-325 g; obtained from Janvier Labs, Le Genest-Saint-Isle, France) were killed by stunning and cervical dislocation, and the heart was quickly removed and washed in cold isolation medium containing 100 mM sucrose, 180 mM KCl, 50 mM Tris, 5 mM MgCl2, 10 mM EDTA, and 0.1% (w/v) defatted BSA (pH 7.2).
Isolation of heart mitochondria was performed in a cold chamber. Before homogenization, hearts (about 1.5 g) were minced with scissors and treated for 5 minutes in 5 mL of the same medium supplemented with protease (2 mg of bacterial proteinase type XXIV per mL of isolation buffer) with stirring. The tissue suspension was poured into a 50-mL glass Potter homogenizer, diluted with 20 mL of isolation buffer, then homogenized for 3 minutes using a motorized Teflon pestle. The homogenate was filtered through bolting cloth (Sefar Nitex) to remove debris, and centrifuged at 8,000 g for 10 minutes. The resulting pellet was rinsed with 5 mL of isolation buffer, resuspended in 25 ml of the same buffer, then subjected to low speed centrifugation (400 g) for 8 minutes. […] Protein concentration was determined by the Bradford method (Sigma, kit # B6916) using BSA as standard. […]
ATP synthesis was measured under the same conditions using a high sensitivity pH electrode (Metrohm) as previously described (Gouspillou et al., 2014. Aging Cell. 13(1):39-48).

[3] = tested on: carcinoma cell lines A549 and H460; assay: Cytotoxicity, sulforhodamine B (SRB) assay; type: cell-based, human; settings: 48 hours
Description: Human non-small cell carcinoma cell line H460 and A549 were obtained from ATCC. Cells were cultured in growth medium consisting of DMEM (GIBCO), 10% FBS (GIBCO) and 100 units of penicillin and 100 μg/mL streptomycin (GIBCO). The cells were maintained in either 75-cm^2 T-flasks or 175-cm^2 T-flasks (BD Biosciences) in an incubator (model 3100 series, Forma Scientific, Marietta, Ohio) controlled at 37° C., 95% humidity, and 5% CO2. Cell culture medium was refreshed every other day. Every 2 to 3 days, H460 and A549 cultures were detached from the flasks using a 0.25% trypsin solution (Gibco) and subcultured. All cultures were maintained at 80-90% confluence at the time of subculture.
Cytotoxicity screening was carried out by sulforhodamine B colorimetric assay. A549 and H460 cells (2·10^3) were seeded in a 96-well plate, and after adherence, cells were incubated with 5 to 500 μM of AOL or AOX or control dimethyl sulfoxide (DMSO). Cytotoxicity was evaluated after 48 hours treatment sulforhodamine B (SRB) assay, according to Vichai (Vichai et al., 2006. Nat. Protoc. 1(3):1112-6).

Row | Structure (SMILES) | PASMC proliferation in presence of 0.2% FCS and 100 μM 5HT [1] | PASMC proliferation induced by 10% FCS [1] | concentration that completely abolishes phosphorylation rate [2] | concentrations that do not modify ATP synthesis [2] | concentrations without significant toxicity [3] | IC50 ([3]; Homo sapiens, 0 to 500 μM, read-out: IC50 for high dose toxicity)
1 | COc1ccc(-c2cc(=S)ss2)cc1 [AOL, 5-(4-methoxyphenyl)-3H-1,2-dithiole-3-thione] | successfully inhibited the proliferation | successfully inhibited the proliferation | – | – | – | –
2 | Oc1ccc(-c2cc(=S)ss2)cc1 [AOX, 5-(4-hydroxyphenyl)-3H-1,2-dithiole-3-thione] | – | – | 60 µM | lower than 20 μM | lower than 100 μM | 134.8 ± 0.3 µM
